Reference: PMC11251039, “Harnessing cholesterol uptake of malaria parasites for therapeutic applications” (EMBO Molecular Medicine, 2024)
Values joined by “and” are separate entries in the source; they are usually repeats but may differ in a detail not shown here. Equal values may be shown once.

Columns and labels:
[1] = system: P. falciparum stage V gametocytes; assay: P. falciparum gametocyte viability assay (MitoTracker, flow cytometry), stage V; assay type: cell-based, Plasmodium falciparum; conditions: 48 h
Summary of the method: (§1)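 Magnetically enriched gametocytes, stage III-IV (day 7) or stage V (day 10), were exposed to serially diluted compounds in medium with 50 mM N-acetyl-D-glucosamine for 48 hours at 37 °C, microaerophilic. Staining with 500 nM MitoTracker Deep Red FM and Hoechst, then flow cytometry, gave percentage live versus dead gametocytes.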

[2] = system: Toxoplasma gondii tachyzoites (RH strain); assay: Toxoplasma growth inhibition assay (tdTomato fluorescence, in HFF cells); assay type: cell-based; conditions: Toxoplasma gondii, HFF, 72 h, read-out: IC50, T. gondii tachyzoite growth inhibition
P. berghei liver stages = assay: Plasmodium berghei liver stage growth inhibition assay (luminescence, in Huh7 cells); conditions: for P. berghei liver stage growth, dose-response data points (Figure 3A): replicate data points
Protocol: Growth inhibition or cell viability were assessed by incubation with a serial dilution of test compounds, solvent controls (DMSO, ethanol, ethyl acetate), or culture media alone in 96-well plates, with detection of fluorescence, luminescence, or absorbance in microplate readers after 24–96 h unless otherwise specified.
Huh7 cells were seeded at a density of 10,000 cells per well of a 96-well plate, or 20,000 cells per collagen-coated coverslip. After 24 h, test compounds were added the wells were inoculated with P. berghei liver stage sporozoites dissected from infected A. stephensi salivary glands with 5000–10,000 sporozoites per well or 10,000–20,000 sporozoites per coverslip. Uninfected wells served as a control for background luminescence. Luminescence signal was measured 48 h post-invasion by addition of 1:1 ONE-Glo^TM substrate (Promega) with a luminescence microplate reader. Coverslips were fixed, stained, and imaged, with all parasites on each coverslip imaged and delineated as described (Petersen et al, [2017]) using Fiji ImageJ (Schindelin et al, [2012]). Data are presented as a percentage of the size or parasite number of the solvent control to normalize for differences between experiments.
Growth inhibition data were normalised by subtracting background fluorescence, luminescence, absorbance, or percentage of cells from a no-growth or no-viability control (high drug concentration, no-parasite control, or time = 0 measurement as specified), and expressed as a percentage of the growth or cell percentage in the negative control (culture media alone or solvent control) at the indicated timepoint (or to the highest measurement reached during the assay for Fig. EV3).
Plasmodium berghei ANKA Bergreen (22) or GFP-Luc (RMgm-29) (23), respectively
expressing green fluorescent protein (GFP) or a GFP-Luciferase fusion protein, were
maintained under routine conditions in SWR/J Mus musculus mice and Anopheles stephensi
Growth inhibition of P. berghei liver-stages was investigated after infection of human
hepatoma cells (Huh7) and subsequent growth for 48 hours at 37° C, 5% CO2 and 80%
humidity. The day prior to infection, 10,000 Huh7 cells were seeded in dark-sided 96-well
microplates (Greiner Bio One). On the day of infection, compounds or solvent controls
(DMSO) were serially diluted in culture media and 5,000 – 10,000 Bergreen or GFP-Luc
sporozoites were added per well following dissection from infected A. stephensi salivary
glands. Uninfected wells served as control for background luminescence. To promote invasion,
the plates were centrifuged at 1,550 g for 5 minutes. After 60 minutes, the media was
completely replaced with fresh, prewarmed media with the matching drug concentrations.
Media was partially replaced with new drug dilutions over the following two days. 48 hours
post-infection, luminescence signal was measured by addition of 1:1 ONE-GloTM substrate
(Promega) to the wells, followed by detection at 300 – 700 nm using a Synergy HTX plate

[3] = system: P. falciparum stage III–IV gametocytes; assay: P. falciparum gametocyte viability assay (MitoTracker, flow cytometry), stage III-IV; assay type: cell-based, Plasmodium falciparum; conditions: 48 h; for Gametocyte stage III-IV viability, percentage of control: replicate values, source data Fig. 2C
Summary of the method: as §1

Question: With `COc1cc(NC(C)CCCN)c2ncccc2c1` (stereo not shown) [Primaquine, primaquine, reference compound] as the compound, how does the “Gametocyte stage V viability, percentage of control” value ([1]; 1.562500000 uM, replicate values, source data Fig. 2D, 1.5625 µM) read?
Answer: 97.48% and 95.25% and 88.04%

Question: And the IC50 ([1]; Plasmodium falciparum, read-out: IC50, P. falciparum gametocyte stage V inhibition)?
Answer: 14.8 µM

Question: And the IC50 [2]?
Answer: 9.7 µM

Question: What about the “P. berghei liver stage growth, dose-response data points (Figure 3A)” value (“P. berghei liver stage growth” for short) (P. berghei liver stages; 0.015241580 uM) of the same compound?
Answer: 93.67 and 95.48 and 110.9 and 122 and 82.26 and 95.7 and 96.97 and 92.94 and 110.1

Question: What about the “P. berghei liver stage growth” value (P. berghei liver stages; 0.045724740 uM) of the same compound?
Answer: 108.1 and 96.38 and 105.4 and 91.89 and 98.42 and 97.49 and 70.73 and 69.42 and 92.75

Question: And the “P. berghei liver stage growth” value (P. berghei liver stages; 0.137174210 uM)?
Answer: 105.4 and 121.7 and 113.6 and 95.08 and 83.35 and 110.5 and 75.51 and 85.25 and 113.8

Question: What about the “Figure 3E dose-response value (replicates)” value (“Figure 3E dose-response value” below) (P. berghei liver stages; 0.212890630 uM) of the same compound?
Answer: 110.2 and 105.1 and 104.6 and 108.5 and 84.79 and 105.5 and 104.2 and 95.71 and 86.14 and 93.88 and 93.04

Question: What about the “P. berghei liver stage growth” value (P. berghei liver stages; 0.411522630 uM) of the same compound?
Answer: 105.4 and 115.4 (2×) and 82.34 and 95.47 and 107.6 and 82.44 and 82.72 and 115.2

Question: And the “Figure 3E dose-response value” value (P. berghei liver stages; 0.425781250 uM)?
Answer: 102.3 and 92.15 and 106 and 104.8 and 98.19 and 93.53 and 98.84 and 93.27 and 90.28

Question: What about the “Figure 3E dose-response value” value (P. berghei liver stages; 0.851562500 uM) of the same compound?
Answer: 96.31 and 95.61 and 102.1 and 104.8 and 94.91 and 106 and 91.69 and 92.32 and 88 and 100 and 90.58 and 89.08

Question: What about the “P. berghei liver stage growth” value (P. berghei liver stages; 1.234567900 uM) of the same compound?
Answer: 95.48 and 107.2 and 78.84 and 85.44 and 95.31 and 57.42 and 69.42 and 85.07

Question: And the “Figure 3E dose-response value” value (P. berghei liver stages; 1.703125000 uM)?
Answer: 88.27 and 98.56 and 102.4 and 105.9 and 83.84 and 86.74 and 92.09 and 88.62

Question: And the “Figure 3E dose-response value” value (P. berghei liver stages; 3.406250000 uM)?
Answer: 97.54 and 95.04 and 93.86 and 98.31 and 97.98 and 92.53 and 88.24 and 88.2 and 80.51 and 79.64 and 66.71 and 72.77

Question: And the “P. berghei liver stage growth” value (P. berghei liver stages; 3.703703700 uM)?
Answer: 52.94 and 55.66 and 62.9 and 27.87 and 29.81 and 24.61 and 21.71 and 31.37 and 31.18

Question: What about the “Figure 3E dose-response value” value (P. berghei liver stages; 6.812500000 uM) of the same compound?
Answer: 52.26 and 84.6 and 91.44 and 91.35 and 88.74 and 72.33 and 82.87 and 73.41 and 70.7 and 48.65 and 46.53 and 51.73

Question: What about the “P. berghei liver stage growth” value (P. berghei liver stages; 11.111111100 uM) of the same compound?
Answer: 2.262 and -2.262 (2×) and 1.062 and 1.606 and 2.072 and 3.062 and 2.968 and 4.186

Question: And the “Figure 3E dose-response value” value (P. berghei liver stages; 13.625000000 uM)?
Answer: 24.3 and 46.65 and 52.62 and 55.32 and 16.73 and 22.67 and 37.29 and 44.07 and 37.02 and 20.99 and 23.94 and 27.39

Question: What about the “Figure 3E dose-response value” value (P. berghei liver stages; 27.250000000 uM) of the same compound?
Answer: 0.8156 and 1.015 and 0.9272 and 0.814 and 1.004 and 2.12 and 0.3528 and 0.5411 and 2.525 and 0.8793 and 0.07968 and 0.8298

Question: What about the “P. berghei liver stage growth” value (P. berghei liver stages; 33.333333300 uM) of the same compound?
Answer: -1.357 (3×) and 0.4403 and 0.2849 and 0.3626 and 1.093 and 1.749 and 0.9997

Question: And the “P. berghei liver stage growth” value (P. berghei liver stages; 100.000000000 uM)?
Answer: -3.167 and -0.4525 and 0.4525 and -0.0259 and 0.0518 (2×) and -0.03124 (2×) and 0.5311

Question: What about the “Figure 3E dose-response value” value (P. berghei liver stages; 109.000000000 uM) of the same compound?
Answer: 3.02 and 0.4007 and 0.2308 and 0.4951 and 3.634 and 2.894 and 0.4747 and 1.134 and 1.25 and 3.638 and 3.687 and 3.498

Question: What about the IC50 (P. berghei liver stages; Plasmodium berghei, Huh-7, 48 h, read-out: IC50, P. berghei liver stage growth inhibition) of the same compound?
Answer: 2.9 µM

Question: And the “Gametocyte stage III-IV viability, percentage of control” value ([3]; 0.781250000 uM, 0.78125 µM)?
Answer: 95.42% and 99.73% and 94.08% and 101.8% and 105.1% and 104.7% and 100.9% (2×) and 98.19% and 96.58%

Question: What about the “Gametocyte stage III-IV viability, percentage of control” value ([3]; 1.562500000 uM, 1.5625 µM) of the same compound?
Answer: 95.15% (2×) and 94.61% and 99.24% and 100.4% and 98.94% and 101.3% and 96.75% and 94.78% and 98.39% and 95.38%

Question: What about the “Gametocyte stage III-IV viability, percentage of control” value ([3]; 3.125000000 uM, 3.125 µM) of the same compound?
Answer: 98.92% and 97.04% and 95.42% and 93.41% and 94.06% and 98.34% and 98.94% and 97.34% and 97.99% and 97.59%

Question: What about the “Gametocyte stage III-IV viability, percentage of control” value ([3]; 6.250000000 uM, 6.25 µM) of the same compound?
Answer: 98.92% and 103.8% and 95.15% and 101.3% and 99.57% and 96.95% and 89.77% and 92.16% and 101.4% and 98.59% and 97.59%

Question: And the “Gametocyte stage III-IV viability, percentage of control” value ([3]; 12.500000000 uM, 12.5 µM)?
Answer: 94.88% and 91.65% and 92.46% and 91.95% and 85.99% and 84% and 83.2% and 99.8% and 98.59% and 96.58%

Question: What about the “Gametocyte stage III-IV viability, percentage of control” value ([3]; 25.000000000 uM) of the same compound?
Answer: 79.16% and 90.84% and 90.57% and 89.5% and 87.42% and 88.71% and 66.47% and 62.28% and 62.48% and 96.99% and 92.97% and 89.75%

Question: And the “Gametocyte stage III-IV viability, percentage of control” value ([3]; 50.000000000 uM)?
Answer: 68.48% and 81.96% and 79.26% and 79.53% and 71.16% and 70.66% and 55.31% and 29.42% and 60.69% and 80.71% and 75.49% and 72.07%

Question: And the “Gametocyte stage III-IV viability, percentage of control” value ([3]; 100.000000000 uM)?
Answer: 13.88% and 70.94% and 81.83% and 86.47% and 12.9% and 10.48% and -20.11% and -20.13% and -19.64% and 38.56% and 39.79% and 36.92%

Question: And the “Gametocyte stage III-IV viability, percentage of control” value ([3]; 200.000000000 uM)?
Answer: -26.52% and -4.004% and -1.274% and -24.53% and -24.5% and -24.31% and -27.02% and -23.13% and -23.83%

Question: And the viability at 0.78125 µM ([3]; Plasmodium falciparum, read-out: Gametocyte stage III-IV viability, percentage of control, 0.781250000 uM, 48 h, replicate values, source data Fig. 2C)?
Answer: 101%

Question: And the viability at 1.5625 µM ([3]; Plasmodium falciparum, read-out: Gametocyte stage III-IV viability, percentage of control, 1.562500000 uM, 48 h, replicate values, source data Fig. 2C)?
Answer: 98.8%

Question: What about the viability at 3.125 µM ([3]; Plasmodium falciparum, read-out: Gametocyte stage III-IV viability, percentage of control, 3.125000000 uM, 48 h, replicate values, source data Fig. 2C) of the same compound?
Answer: 93.3%

Question: And the viability at 6.25 µM ([3]; Plasmodium falciparum, read-out: Gametocyte stage III-IV viability, percentage of control, 6.250000000 uM, 48 h, replicate values, source data Fig. 2C)?
Answer: 94.2%

Question: What about the viability at 12.5 µM ([3]; Plasmodium falciparum, read-out: Gametocyte stage III-IV viability, percentage of control, 12.500000000 uM, 48 h, replicate values, source data Fig. 2C) of the same compound?
Answer: 89%

Question: And the IC50 ([3]; Plasmodium falciparum, read-out: IC50, P. falciparum gametocyte stage III-IV inhibition)?
Answer: 60 µM
